Source: ChEMBL document CHEMBL1201862, “PubChem BioAssay data set” (2004)
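Tested at 5 concentrations; 48 h exposure; 96-well plates; endpoints linearly interpolated, else capped at highest concentration. The concentration for 50% growth inhibition is given as GI50.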 Activity calls are given as the source filed them. No stated cut-off is given here; in the data, active = GI50 up to about 1.1 µM and inactive = higher.

What was measured:
Test in all cases: NCI-60 cell line screen, 48 h
[1] = tested on: BT-549
[2] = tested on: M19-MEL
[3] = tested on: SNB-78
[4] = tested on: HOP-18
[5] = tested on: DMS-273
[6] = tested on: DLD-1
[7] = tested on: LXFL 529
[8] = tested on: RXF 631
[9] = tested on: XF498

Compound | GI50 [1] | GI50 [2] | GI50 [6] | GI50 [7] | further results
CC1(C)CCC(=O)NC1CC(=O)CC1NC(=O)CCC1(C)C (centres undefined) | > 100 µM (inactive) | – | – | – | –
O=C1C[C@@H]2[C@@H](C=CC23CC3)N1O | – | > 100 µM (inactive) | > 100 µM (inactive) | > 100 µM (inactive) | GI50 [3]: > 100 µM (inactive); GI50 [4]: > 100 µM (inactive); GI50 [5]: > 100 µM (inactive)
COc1ccc(-c2cn3c(n2)sc2cc(C)ccc23)cc1 | 12.1 µM (inactive) | – | – | – | –
CC(C)OC(=O)[C@@H]1OC(C)(C)O[C@H]1C(=O)OC(C)C | > 100 µM (inactive) | – | – | – | –
N#Cc1ccc(Sc2nc3ccccc3[nH]2)cc1 | – | 86.1 µM (inactive) | > 100 µM (inactive) | 46.7 µM (inactive) | GI50 [3]: > 100 µM (inactive); GI50 [4]: > 100 µM (inactive); GI50 [5]: > 100 µM (inactive)
O=C(NCCCCCCNC(=O)NC1OCC(O)C(O)C1O)NC1OCC(O)C(O)C1O (centres undefined) | – | > 100 µM (inactive) | > 100 µM (inactive) | > 100 µM (inactive) | GI50 [3]: > 100 µM (inactive)
COc1ccc(C2c3cc4c(cc3OC(N3CCOCC3)C2C)OCO4)c(OC)c1 (centres undefined) | 3.23 µM (inactive) | – | – | – | –
C=C(Cl)C(Cl)(CBr)CCCC(C)(C)Cl (centres undefined) | 52 µM (inactive) | – | – | – | –
COc1ccc2[nH]c3c(C)c4ncccc4c(C)c3c2c1 | > 10 µM (inactive) | – | – | – | –
O=C1C2=Cc3ccccc3OC2(O)Oc2cc(O)ccc21 (centres undefined) | > 100 µM (inactive) | – | – | – | –
NCCCNCCCCN(CCCN)/[N+]([O-])=N\O | – | > 100 µM (inactive) | > 100 µM (inactive) | > 100 µM (inactive) | GI50 [8]: > 100 µM (inactive); GI50 [3]: > 100 µM (inactive); GI50 [4]: > 100 µM (inactive); GI50 [5]: > 100 µM (inactive)
Cn1cnc(CCc2ccccc2)n1 | – | > 100 µM (inactive) | > 100 µM (inactive) | > 100 µM (inactive) | GI50 [3]: > 100 µM (inactive); GI50 [4]: > 100 µM (inactive); GI50 [5]: > 100 µM (inactive)
O=Cc1[nH]c(=O)[nH]c(=O)c1CCl | > 100 µM (inactive) | – | – | – | –
CC(=O)NNc1nc(C)c(C(=O)NNC(=O)C(=O)Nc2c(Cl)cc([N+](=O)[O-])cc2Cl)s1 | – | 46.6 µM (inactive) | – | 33.7 µM (inactive) | GI50 [3]: 31.9 µM (inactive); GI50 [5]: 32.6 µM (inactive)
COc1cc(/C=C2\C(=O)N(c3ccc(NC(C)=O)cc3)C(c3ccccc3)S2(=O)=O)cc(OC)c1OC (centres undefined) | > 100 µM (inactive) | – | – | – | –
CCN(CC)CCN1CCN=c2c3cc(OC)ccc3n3cnc4ccc1c2c43 | 1.27 µM (inactive) | – | – | – | –
COCCOCCOC1=CC(=O)c2c(O)ccc(O)c2C1=O | 1.79 µM (inactive) | – | – | – | –

Compound | GI50 [1] | GI50 [2] | GI50 [6] | GI50 [7] | further results
CC1(OCc2ccccc2)C(=O)N2C1NCC2(C)C (centres undefined) | – | > 100 µM (inactive) | > 100 µM (inactive) | > 100 µM (inactive) | GI50 [8]: > 100 µM (inactive); GI50 [9]: > 100 µM (inactive); GI50 [5]: > 100 µM (inactive)
CC1C(O)Oc2cc3c(cc2C1c1ccccc1O)OCO3 (centres undefined) | 34.9 µM (inactive) | – | – | – | –
O=C(/C=C/c1ccc(O)c(O)c1)NC(COC(=O)/C=C/c1ccc(O)c(O)c1)C(=O)O (centres undefined) | > 100 µM (inactive) | – | – | – | –
CCCCC(CCCC)=NNC(=S)SC | 42 µM (inactive) | – | – | – | –
CC(NC(=O)c1ccccc1)(C(=O)O)C(=O)O | > 100 µM (inactive) | – | – | – | –
c1ccc2c(c1)nc1n2sc2nc3ccccc3n21 | > 100 µM (inactive) | – | – | – | –
CCOP(=O)(/C=C\n1ccc(N)nc1=O)OCC | > 100 µM (inactive) | – | – | – | –
CC(C)c1cc(C(C)C)c(S(=O)(=O)NN)c(C(C)C)c1 | – | > 100 µM (inactive) | > 100 µM (inactive) | – | GI50 [3]: > 100 µM (inactive); GI50 [4]: > 100 µM (inactive); GI50 [5]: > 100 µM (inactive)
CC(=O)O[C@@H]1C2C(=O)OC(=O)C2C2CCC[C@]23O[C@H]13 (some centres undefined) | – | > 100 µM (inactive) | > 100 µM (inactive) | > 100 µM (inactive) | GI50 [3]: > 100 µM (inactive); GI50 [4]: > 100 µM (inactive); GI50 [5]: > 100 µM (inactive)
CN1CCN(c2ccc([N+](=O)[O-])c3no[n+]([O-])c23)CC1 | 1.09 µM (active) | – | – | – | –
CCCCCCCCCCCCCC(=O)CBr | 8.71 µM (inactive) | 9.25 µM (inactive) | 11.7 µM (inactive) | 3.72 µM (inactive) | GI50 [8]: 16.3 µM (inactive); GI50 [3]: 14.2 µM (inactive); GI50 [4]: 14.7 µM (inactive); GI50 [5]: > 10 µM (inactive)
COc1ccc2c(Cl)cc(NC(=S)Nc3ccccc3)nc2c1 | 39 µM (inactive) | – | – | – | –
CC1(C)CCCCCC(C)(CCCCCCCCCCCO)C1=O (centres undefined) | 18.9 µM (inactive) | – | – | – | –
COc1nc(NC2OC(COC(C)=O)C(OC(C)=O)C(OC(C)=O)C2OC(C)=O)c(/N=C/C=N/c2c(NC3OC(COC(C)=O)C(OC(C)=O)C(OC(C)=O)C3OC(C)=O)nc(OC)[nH]c2=O)c(=O)[nH]1 (centres undefined) | – | > 100 µM (inactive) | > 100 µM (inactive) | > 100 µM (inactive) | GI50 [4]: > 100 µM (inactive)
ClCCC[Si]12OCCN(CCO1)CCO2 | – | > 100 µM (inactive) | > 100 µM (inactive) | > 100 µM (inactive) | GI50 [3]: > 100 µM (inactive); GI50 [5]: > 100 µM (inactive)
CCn1c(-c2ccc(OC)cc2)nc2c1C(=O)c1ccccc1C2=O | 67.6 µM (inactive) | – | – | – | –
Cc1nc2c(nc1C)-c1c(c3c(n1C)C(=O)CCC3)C(=O)C2=O | 0.0259 µM (active) | – | – | – | –
